Some results are limits rather than exact numbers.

The results in this text go back to PMC8848500 (Bioorganic & medicinal chemistry, 2020).

In data set [1] the target is T1, human neutrophil elastase (HNE) (Homo sapiens, UniProt P08246).
T1 sequence (P08246 30-267): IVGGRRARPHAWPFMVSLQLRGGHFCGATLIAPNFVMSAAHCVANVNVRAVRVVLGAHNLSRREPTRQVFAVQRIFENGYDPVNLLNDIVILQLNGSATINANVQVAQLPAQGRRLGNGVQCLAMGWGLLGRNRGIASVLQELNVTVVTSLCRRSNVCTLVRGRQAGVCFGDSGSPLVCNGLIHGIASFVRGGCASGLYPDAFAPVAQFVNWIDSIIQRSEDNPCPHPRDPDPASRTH
As to the kind of experiment: HNE inhibition assay. Type of data set: biochemical.

Data set [2] is described as follows: Chemical stability at room temperature. Particulars: conversion to precursors 14 and 18. The data set is classed as physicochemical.

Usually IC50 stands for the point on the concentration scale where inhibition reaches its midpoint. Read a low IC50 as inhibition by little substance. With `N#Cc1nn(Cc2ccccc2)c2ncccc12` [Compound 2c, 1-Benzyl-1H-pyrazolo[3,4-b]pyridine-3-carbonitrile], in data set [1], the “HNE inhibitory activity (in words)” value is recorded as “complete loss of HNE inhibitory activity” and the 50% inhibitory concentration (IC50) is more than 50 µM.
`N#Cc1nn(C(=O)c2ccccc2)c2ncccc12` [Compound 2d, 1-Benzoyl-1H-pyrazolo[3,4-b]pyridine-3-carbonitrile] returned an IC50 in data set [1] of 0.14 µM.
For the compound `Cc1cccc(C(=O)n2nc(C#N)c3cccnc32)c1` [Compound 2e, 1-(3-Methylbenzoyl)-1H-pyrazolo[3,4-b]pyridine-3-carbonitrile], the “fold less potent than A” value in data set [1] (HNE IC50 versus reference A) is listed as 47 fold.
Consider `N#Cc1nn(C(=O)C2CCCCC2)c2ncccc12` [Compound 2i, 1-(Cyclohexanecarbonyl)-1H-pyrazolo[3,4-b]pyridine-3-carbonitrile], for which the “HNE inhibitory activity (in words)” value in data set [1] is given as “loss of activity”.
On to `O=C(Nc1nn(C(=O)C2CC2)c2ncccc12)C1CC1` [Compound 7, N-(1-(Cyclopropanecarbonyl)-1H-pyrazolo[3,4-b]pyridin-3-yl)cyclopropanecarboxamide], for which it took 1.5 ± 0.14 µM to reach half-maximal inhibition in data set [1] (IC50).
The same measure, in the same setting: for `CC(=O)n1nc(NC(=O)c2cccc(C)c2)c2cccnc21` [Compound 9, N-(1-Acetyl-1H-pyrazolo[3,4-b]pyridin-3-yl)-3-methylbenzamide] the value was 25.2 ± 1.3 µM.
Turning to `Cc1cccc(C(=O)n2cc(C#N)c3ccncc32)c1` [Compound 13e, 1-(3-Methylbenzoyl)-1H-pyrrolo[2,3-c]pyridine-3-carbonitrile], the “HNE inhibitory activity (in words)” value in data set [1] is “reduced activity compared to the reference compounds B and C”.
`N#Cc1cn(C(=O)C2CC2)c2cnccc12` [Compound 13f, 1-(Cyclopropanecarbonyl)-1H-pyrrolo[2,3-c]pyridine-3-carbonitrile]: the “HNE inhibitory activity (in words)” value in data set [1] is “reduced activity compared to the reference compounds B and C”.
As for `Cc1cccc(C(=O)n2ccc3nccnc32)c1` [Compound 15a, (5H-Pyrrolo[2,3-b]pyrazin-5-yl)(m-tolyl)methanone], the chemical stability result in data set [2] is “not chemically stable”.
Take `O=C(C1CC1)n1ccc2nccnc21` [Compound 15b, Cyclopropyl(5H-pyrrolo[2,3-b]pyrazin-5-yl)methanone]: the “HNE inhibitory activity (in words)” value in data set [1] is recorded as “reduced activity by two orders of magnitude”.
`Cc1cccc(C(=O)n2cc(C#N)c3nccnc32)c1` [Compound 19a, 5-(3-Methylbenzoyl)-5H-pyrrolo[2,3-b]pyrazine-7-carbonitrile]: the chemical stability result in data set [2] is listed as “not chemically stable”.
Regarding `COc1cccc(NC(=O)c2cnc3cc(C)nn3c2C)c1` [Compound 22a, N-(3-Methoxyphenyl)-2,7-dimethylpyrazolo[1,5-a]pyrimidine-6-carboxamide], in data set [1], the IC50 is more than 50 µM.
On to `COc1cccc(NC(=O)c2cnc3cc(C(C)(C)C)nn3c2C)c1` [Compound 22b, 2-(tert-Butyl)-N-(3-methoxyphenyl)-7-methylpyrazolo[1,5-a]pyrimidine-6-carboxamide], for which the IC50 in data set [1] was more than 50 µM.
In data set [1], `COc1cccc(NC(=O)c2cnc3c(Cl)c(C(C)(C)C)nn3c2C)c1` [Compound 22c, 2-(tert-Butyl)-3-chloro-N-(3-methoxyphenyl)-7-methylpyrazolo[1,5-a]pyrimidine-6-carboxamide] showed an IC50 of more than 50 µM.
In turn, `COc1cccc(CNC(=O)c2cnc3cc(C)nn3c2C)c1` [Compound 22d, N-(3-Methoxybenzyl)-2,7-dimethylpyrazolo[1,5-a]pyrimidine-6-carboxamide] gave a half-inhibitory concentration (IC50) in data set [1] of more than 50 µM.
In data set [1], `COc1cccc(CNC(=O)c2cnc3cc(C(C)(C)C)nn3c2C)c1` [Compound 22e, 2-(tert-Butyl)-N-(3-methoxybenzyl)-7-methylpyrazolo[1,5-a]pyrimidine-6-carboxamide] had an IC50 of more than 50 µM.
The same measure, in the same setting: for `COc1cccc(CNC(=O)c2cnc3c(Cl)c(C(C)(C)C)nn3c2C)c1` [Compound 22f, 2-(tert-Butyl)-3-chloro-N-(3-methoxybenzyl)-7-methylpyrazolo[1,5-a]pyrimidine-6-carboxamide] the value was more than 50 µM.
